# Data as given in US4231936A, “Mitomycin C derivatives” (priority 1977, dated 1980).
# How the values were obtained:
# [1] = tested on: Staphylococcus aureus ATCC 6538P; assay: Minimum inhibitory concentration (Table I); format: cell-based
# Text: (§1) Comparative data similarly obtained by using mitomycin A, mitomycin C and 7-N-phenyl mitomycin C are also shown in this table
# [2] = tested on: Bacillus subtilis ATCC 10707; assay: Minimum inhibitory concentration (Table I); format: cell-based
# Text: as §1
# [3] = tested on: Klebsiella pneumoniae ATCC 10031; assay: Minimum inhibitory concentration (Table I); format: cell-based
# Text: as §1
# [4] = tested on: Shigella sonnei ATCC 9290; assay: Minimum inhibitory concentration (Table I); format: cell-based
# Text: as §1
# Solubility in water = format: physicochemical
# [5] = Acute toxicity determination, intraperitoneal; set-up: species or system Mice (dd-strain); conditions: mouse, in vivo, ip; dd mice, single i.p., 14 days, Behrens-Karber
# Description: (§2) The following treatment was performed to make these compounds water-soluble for use in the experiments. A test compound was dissolved in ethanol (about 1000 times by weight) HCO-60, a commercially available surfactant was added in amounts of about 3 times by weight. The mixture was well stirred to dissolve the HCO-60. Ethanol was removed from the solution under reduced pressure by using a rotary evaporator. After this, a test solution was prepared by adding a suitable amount of a physiological saline solution with agitation.
# Mice [dd-strain; weight 20±1 g; each group consisted of 5 mice] were used for this experiment. An individual test solution was administered to each mouse by intraperitoneal injection. The test solutions (each 0.5 ml) were prepared by stepwise dilution.
# [6] = Number of leucocytes in peripheral blood of Sarcoma-180 bearing mice (Example IV); format: in vivo, dd-strain mice; set-up: key: D*: All mice in the group died
# Description: as §2
# (§3) Sarcoma 180 cells were inoculated intraperitoneally into dd-strain mice. After 7 days following tumor implantation, ascites tumor cells were obtained from the mice. The cells were washed and a tumor cell suspension containing 5×10^7 cells per ml was prepared with physiological saline solution. 0.1 ml of the thus-prepared suspension containing 5×10^6 cells was inoculated into the left inguinal region of each of the test mice (dd-strain; weight 19±1 g; divided into groups, each group consisting of 5 mice). After 24 hours following the inoculation, the test compounds were administered to the mice individually and intraperitoneally. After 4 days following the inoculation, the peripherical blood of the treated mice was obtained by the puncture of the orbital vein. The number of the leucocytes in the peripheral blood was measured by using Toa Microcell Counter CC-108 (a commercial product of Toa Medical Electronics Co., Ltd., Japan). In order to evaluate the antitumor effects, the tumor was removed 7 days after the inoculation and weighed. Its weight was compared with the average weight of the tumors of the control group (untreated) to give the weight ratios (T/C) shown in Table 5.
# P-388 cells [7] = assay: Antitumor effect, P-388 cells intravenously inoculated, compound i.v. (Example III); format: in vivo, Mice; conditions: 30 days
# Description: as §2
# Mice were inoculated intravenously with P-388 cells (10^6 /0.2 ml) in a similar manner to that described above in Example II. […] Untreated mice and mice administered with Tween 80 were used for control purpose.
# Sarcoma 180 cells = assay: Effect on Sarcoma-180, tumor weight ratio (Example IV); format: in vivo, dd-strain mice; set-up: key: D*: All mice in the group died
# Description: as §2, §3
# P-388 cells [8] = assay: Antitumor activity, P-388 leukemia intraperitoneally inoculated, compound i.p. (Example II); format: in vivo, CDF1 mice
# Description: as §2
# Seven-day-old leukemia cells obtained from the ascites of DBA/2 mice inoculated intraperitoneally with 10^6 P-388 cells were used. A cell suspension containing 5×10^6 cells per ml was prepared by using a sterilized physiological saline solution. The test mice (CDF1 mice, 20-25 g) were inoculated with 0.2 ml of the cell suspension containing 1×10^6 cells intraperitoneally. After 24 hours, the mice were divided into groups (each group consisting of 5 mice) and the test solutions were administered intraperitoneally once only. […] In order to evaluate the effects of the test samples, the average survival days were calculated 30 and 60 days after tumor implantation and compared with those of the control group (untreated group). Antitumor activities of the test compounds are indicated by ILS % (increase in life span%) on the basis of the control group.
# [9] = 5 mg/kg i.p., 4 days after inoculation
# [10] = 10 mg/kg i.p., 4 days after inoculation
# [11] = 20 mg/kg i.p., 4 days after inoculation
# [12] = 5 mg/kg i.p., tumor weighed 7 days after inoculation
# [13] = 10 mg/kg i.p., tumor weighed 7 days after inoculation
# [14] = 20 mg/kg i.p., tumor weighed 7 days after inoculation
# [15] = 5 mg/kg i.p. once, determined after 30 days
# [16] = 5 mg/kg i.p. once, determined after 60 days
# [17] = 10 mg/kg i.p. once, determined after 30 days
# [18] = 10 mg/kg i.p. once, determined after 60 days
# [19] = 20 mg/kg i.p. once, determined after 30 days
# [20] = 20 mg/kg i.p. once, determined after 60 days
# [21] = 30 mg/kg i.p. once, determined after 30 days
# [22] = 30 mg/kg i.p. once, determined after 60 days
# [23] = 15 mg/kg i.p. once, determined after 30 days
# [24] = 15 mg/kg i.p. once, determined after 60 days
compound,measurement,setting,value
"COC1=C(C)C(=O)C2=C(C1=O)[C@@H](COC(N)=O)[C@@]1(OC)[C@H]3N[C@H]3CN21 [Compound I, mitomycin A]",minimum inhibitory concentration,[1],< 0.025
same,minimum inhibitory concentration,[2],< 0.025
same,minimum inhibitory concentration,[3],< 0.025
same,minimum inhibitory concentration,[4],0.098
"CO[C@@]12[C@H](COC(N)=O)C3=C(C(=O)C(C)=C(Nc4ccc(O)cc4)C3=O)N1C[C@@H]1N[C@@H]12 [Compound IV, 7-N-(p-hydroxyphenyl)-mitomycin C]",solubility in water,Solubility in water,low solubility in water
same,LD50 at 336 h,[5],34 mg/kg
same,Average number of leucocytes,[6]; [9],63.2 ± 10.2 × 10^2 /mm^3
same,Average number of leucocytes,[6]; [10],64.0 ± 24.6 × 10^2 /mm^3
same,Average number of leucocytes,[6]; [11],39.0 ± 5.6 × 10^2 /mm^3
same,Average number of leucocytes,"[6]; 40 mg/kg i.p., 4 days after inoculation",40.0 ± 15.3 × 10^2 /mm^3
same,minimum inhibitory concentration,[1],0.196
same,minimum inhibitory concentration,[2],0.049
same,minimum inhibitory concentration,[3],0.391
same,minimum inhibitory concentration,[4],6.25
same,Average survival days,P-388 cells [7]; 5 mg/kg i.v. once,11.4 ± 1.4 days
same,ILS %,P-388 cells [7]; 5 mg/kg i.v. once,33%
same,Average survival days,P-388 cells [7]; 10 mg/kg i.v. once,14.0 ± 0 days
same,ILS %,P-388 cells [7]; 10 mg/kg i.v. once,63%
same,Average survival days,P-388 cells [7]; 15 mg/kg i.v. once,16.6 ± 1.5 days
same,ILS %,P-388 cells [7]; 15 mg/kg i.v. once,93%
same,Average survival days,P-388 cells [7]; 20 mg/kg i.v. once,17.6 ± 4.1 days
same,ILS %,P-388 cells [7]; 20 mg/kg i.v. once,105%
same,Average survival days,P-388 cells [7]; 30 mg/kg i.v. once,7.6 ± 0.8 days
same,ILS %,P-388 cells [7]; 30 mg/kg i.v. once,-12%
same,T/C (tumor weight ratio),Sarcoma 180 cells; [12],0.83
same,T/C (tumor weight ratio),Sarcoma 180 cells; [13],0.66
same,T/C (tumor weight ratio),Sarcoma 180 cells; [14],0.46
same,T/C (tumor weight ratio),"Sarcoma 180 cells; 40 mg/kg i.p., tumor weighed 7 days after inoculation",0.27
same,Average survival days,P-388 cells [8]; [15],20.4 ± 5.2 days
same,ILS % (increase in life span),P-388 cells [8]; [15],108%
same,Number of survivors,P-388 cells [8]; [15],1/5
same,Average survival days,P-388 cells [8]; [16],20.4 ± 5.2 days
same,ILS % (increase in life span),P-388 cells [8]; [16],108%
same,Number of survivors,P-388 cells [8]; [16],0/5
same,Average survival days,P-388 cells [8]; [17],23.0 ± 4.5 days
same,ILS % (increase in life span),P-388 cells [8]; [17],135%
same,Number of survivors,P-388 cells [8]; [17],1/5
same,Average survival days,P-388 cells [8]; [18],23.4 ± 5.1 days
same,ILS % (increase in life span),P-388 cells [8]; [18],136%
same,Number of survivors,P-388 cells [8]; [18],0/5
same,Average survival days,P-388 cells [8]; [19],28.4 ± 3.2 days
same,ILS % (increase in life span),P-388 cells [8]; [19],190%
same,Number of survivors,P-388 cells [8]; [19],4/5
same,Average survival days,P-388 cells [8]; [20],47.6 ± 15.8 days
same,ILS % (increase in life span),P-388 cells [8]; [20],386%
same,Number of survivors,P-388 cells [8]; [20],3/5
same,Average survival days,P-388 cells [8]; [21],15.4 ± 0.4 days
same,ILS % (increase in life span),P-388 cells [8]; [21],57%
same,Number of survivors,P-388 cells [8]; [21],1/5
same,Average survival days,P-388 cells [8]; [22],21.4 ± 20.7 days
same,ILS % (increase in life span),P-388 cells [8]; [22],118%
same,Number of survivors,P-388 cells [8]; [22],1/5
"CO[C@@]12[C@H](COC(N)=O)C3=C(C(=O)C(C)=C(Nc4ccccc4)C3=O)N1C[C@@H]1N[C@@H]12 [III, 7-N-phenyl mitomycin C, reference compound]",solubility in water,Solubility in water,low solubility in water
same,Average number of leucocytes,[6]; [9],81.4 ± 21.2 × 10^2 /mm^3
same,Average number of leucocytes,[6]; [10],60.8 ± 18.7 × 10^2 /mm^3
same,Average number of leucocytes,[6]; [11],31.8 ± 11.9 × 10^2 /mm^3
same,Average number of leucocytes,"[6]; 40 mg/kg i.p., death symbol in place of count",D*
same,minimum inhibitory concentration,[1],< 0.025
same,minimum inhibitory concentration,[2],< 0.025
same,minimum inhibitory concentration,[3],0.098
same,minimum inhibitory concentration,[4],1.563
same,Average survival days,P-388 cells [7]; 5 mg/kg i.v. once,11.4 ± 1.4 days
same,ILS %,P-388 cells [7]; 5 mg/kg i.v. once,33%
same,Average survival days,P-388 cells [7]; 10 mg/kg i.v. once,13.6 ± 1.4 days
same,ILS %,P-388 cells [7]; 10 mg/kg i.v. once,54%
same,Average survival days,P-388 cells [7]; 15 mg/kg i.v. once,15.8 ± 1.5 days
same,ILS %,P-388 cells [7]; 15 mg/kg i.v. once,84%
same,Average survival days,P-388 cells [7]; 20 mg/kg i.v. once,18.0 ± 1.7 days
same,ILS %,P-388 cells [7]; 20 mg/kg i.v. once,109%
same,Average survival days,P-388 cells [7]; 30 mg/kg i.v. once,10.0 ± 2.3 days
same,ILS %,P-388 cells [7]; 30 mg/kg i.v. once,16%
same,T/C (tumor weight ratio),Sarcoma 180 cells; [12],0.84
same,T/C (tumor weight ratio),Sarcoma 180 cells; [13],0.59
same,T/C (tumor weight ratio),Sarcoma 180 cells; [14],0.21
same,T/C (tumor weight ratio),"Sarcoma 180 cells; 40 mg/kg i.p., death symbol in place of T/C",D*
same,Average survival days,P-388 cells [8]; [15],17.84 ± 1.2 days
same,ILS % (increase in life span),P-388 cells [8]; [15],82%
same,Number of survivors,P-388 cells [8]; [15],0/5
same,Average survival days,P-388 cells [8]; [16],17.8 ± 1.2 days
same,ILS % (increase in life span),P-388 cells [8]; [16],82%
same,Number of survivors,P-388 cells [8]; [16],0/5
same,Average survival days,P-388 cells [8]; [17],21.8 ± 4.3 days
same,ILS % (increase in life span),P-388 cells [8]; [17],122%
same,Number of survivors,P-388 cells [8]; [17],1/5
same,Average survival days,P-388 cells [8]; [18],22.04 ± 4.6 days
same,ILS % (increase in life span),P-388 cells [8]; [18],124%
same,Number of survivors,P-388 cells [8]; [18],0/5
same,Average survival days,P-388 cells [8]; [23],21.2 ± 2.8 days
same,ILS % (increase in life span),P-388 cells [8]; [23],116%
same,Number of survivors,P-388 cells [8]; [23],0/5
same,Average survival days,P-388 cells [8]; [24],21.2 ± 2.8 days
same,ILS % (increase in life span),P-388 cells [8]; [24],116%
same,Number of survivors,P-388 cells [8]; [24],0/5
same,Average survival days,P-388 cells [8]; [19],21.6 ± 4.4 days
same,ILS % (increase in life span),P-388 cells [8]; [19],120%
same,Number of survivors,P-388 cells [8]; [19],1/5
same,Average survival days,P-388 cells [8]; [20],21.8 ± 4.8 days
same,ILS % (increase in life span),P-388 cells [8]; [20],122%
same,Number of survivors,P-388 cells [8]; [20],0/5
